Reference: patent publication US20240207291A1, “METHODS FOR TREATING POXVIRUS INFECTIONS” (priority 2022, published 2024)
Values joined by “and” are separate entries in the source; they are usually repeats but may differ in a detail not shown here. Identical values can stand only once. Like-named read-outs stand apart in the source and are kept apart here.

Key:
[1] = system: vaccinia virus (modified vaccinia virus Ankara; MVA); assay: microbe, parasite or virus in culture; type: cell-based
[2] = system: Vaccinia virus (MVA strain); type: cell-based
[3] = in vitro; conditions: hamster
[4] = in vitro; conditions: hamster, BHK-21 cells, no virus, 2 days
[5] = CC50, Average of Tests 1-2 (Table 1)
[6] = CC50, Average, Tests 1-3 (Table 1A)
[7] = CC50, Test 2, uninfected BHK-21 cells, 3 days
[8] = CC50, Test 3, uninfected BHK-21 cells, 3 days

Row | Structure (SMILES) | EC50 [1] | EC50 ([1]; Orthopoxvirus vaccinia) [µM] | EC50 ([2]; read-out: Average EC50 ± SD) [µM] | EC50 ([2]; read-out: EC50) [µM] | CC50 [3, 5] [µM] | CC50 [3, 6] [µM] | CC50 [3, 7] [µM] | CC50 [3, 8] [µM] | CC50 ([4]; CC50, n=3) [µM] | CC50 ([4]; CC50 ± SD, n=4) [µM] | CC50 ([3]; CC50, Test 1, uninfected BHK-21 cells, 3 days) [µM]
1 | CCC(CC)COC(=O)[C@H](C)N[P@](=O)(OC[C@H]1O[C@@](C#N)(c2ccc3c(N)ncnn23)[C@H](O)[C@@H]1O)Oc1ccccc1 [Compound of Formula Ia, (S)-2-ethylbutyl 2-(((S)-(((2R,3S,4R,5R)-5-(4-aminopyrrolo[2,1-f][1,2,4]triazin-7-yl)-5-cyano-3,4-dihydroxytetrahydrofuran-2-yl)methoxy)(phenoxy)phosphoryl)amino)propanoate] | 2.3 µM and 0.55 µM | 1.43 | 0.773 ± 0.131 | 0.726 | 12.8 | > 2.5 | 2.5 | > 50 | 26.1 | 28.8 ± 11.5 | –
2 | Nc1ccn(C[C@@H](CO)OCP(=O)(O)O)c(=O)n1 [Cidofovir] | 2.6 µM and 7.2 µM | 4.9 | – | – | > 100 | > 73 | > 100 | 73 | – | – | > 100
